In patent US9802990B2, “Functional peptides for obesity disorders” (DANONE, S.A., priority 2013, dated 2017):
Like-named read-outs stand apart in the source and are kept apart here. Where no end group is shown, it is not given here.

Tests used:
[1] = test system: C. elegans wild type strain N2; test: C. elegans body fat reduction, Nile Red staining; assay type: in vivo, Caenorhabditis elegans; conditions: for % Fluorescence Reduction: nematodes fed NG with peptides alone or in Savia soy fermented product, alone or mixed, 1 μg/mL final concentration, Nile Red; for % Fluorescence Reduction C. elegans: synthesized peptides at 1 μg/mL of final concentration
Procedure: The ability to reduce body fat content in the nematode C. elegans was analyzed in a group of 5 peptide extracts previously obtained from glycinin (see Table 4). These samples were selected by their high effect on PL and PLA2 in vitro inhibition. Specifically, 5 peptide extracts were selected from the PLA2 inhibition assay (M20G, M5G, M31G, M27G and M29G). Body fat content was analyzed in the C. elegans wild type strain N2 by Red Nile dying of living nematodes. Experiments were carried out with age-synchronized populations, starting from egg-stage to young adult stage (3-day adults). During the experiments, worms were cultured in the NGM agar plates as control condition, NGM with the corresponding peptide extracts (100 μL/plate) and NGM with 6 μg/mL of Orlistat as positive control. Nile Red was added on top of the NG plates already seeded with Escherichia coli OP50 strain to a final concentration of 0.05 μg/ml. After incubation at 20° C., young adult worms (60 worms per condition) were taken to measure the in vivo fluorescence in a VersaFluor™ Fluorometer System. Fluorescence obtained in treated worms was calculated from fluorescence of worms fed in control conditions (reference sample). Experiments were carried out by duplicate.
From these purified fractions, a total of 11 peptides were selected to be synthesized and evaluated in vivo in the obesity model of C. elegans (Table 9). All peptides were evaluated at 1 μg/mL of final concentration.
We selected 5 peptides obtained from hydrolysis of glycinin with strain 6 (P8a, P6a, P14c, P16f, P14b) The peptides from glycinin were added to a soy fermented product (Savia® from Danone) both alone or mixed at final concentration of 1 μg/mL. Nematodes were fed with these products and then total lipids were quantified by Nile Red staining.

[2] = In vitro enzymatic digestion model of the digestive tract (pepsin, pancreatin, bile), HPLC; assay type: in vitro ADME
Source text: An in vitro enzymatic digestion model of an in vivo digestive tract was developed for mimicking the physiological conditions to check and certify that each selected peptide was differently degraded throughout the gastro-intestinal tract by the digestive process. Pepsin, pancreatin and bile concentrations were optimized using a published experimental design (Granado-Lorencio et al (2007). J. Agri. Food. Chem., 55, 6387-6394).

[3] = target: T1, PL (pancreatic lipase) (Sus scrofa, UniProt P00591); test: PL inhibition assay with 4-methyl umbelliferyl oleate (4MUO), fluorescence; assay type: biochemical; conditions: synthesized peptides
T1 sequence (P00591 1-450): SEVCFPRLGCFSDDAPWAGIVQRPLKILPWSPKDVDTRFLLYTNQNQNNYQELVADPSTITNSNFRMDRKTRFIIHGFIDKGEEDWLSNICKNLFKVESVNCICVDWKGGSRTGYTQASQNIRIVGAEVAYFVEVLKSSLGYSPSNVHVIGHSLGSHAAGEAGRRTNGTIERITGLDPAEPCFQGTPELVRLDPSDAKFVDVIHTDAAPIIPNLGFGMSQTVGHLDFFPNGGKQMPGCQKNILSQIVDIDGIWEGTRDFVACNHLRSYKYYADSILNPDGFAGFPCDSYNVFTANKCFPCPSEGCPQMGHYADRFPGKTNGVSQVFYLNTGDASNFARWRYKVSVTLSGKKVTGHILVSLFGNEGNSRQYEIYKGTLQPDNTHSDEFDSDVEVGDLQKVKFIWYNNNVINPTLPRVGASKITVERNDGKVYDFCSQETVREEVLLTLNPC
Procedure: Inhibition of PL was determined using 4-methyl umbelliferyl oleate (4MUO) as substrate as described by Sugiyama et al. (Oligomeric procyanidins in apple polyphenol are main active components for inhibition of pancreatic lipase and triglyceride absorption. J Agric Food Chem (2007); 55: 4604-4609) with some modifications. Aliquots of 25 μl of each peptide extract were incubated with 25 μl of PL solution (1 mg/ml) and preincubated for 10 minutes at 26° C. with stirring of 500 rpm. Reaction was initiated by adding 50 μl of 4MUO (0.1 mM) dissolved in Dulbecco's buffer. After incubation at 26° C. for 20 minutes with constant stirring (500 rpm) the reaction was stopped by adding 100 μl of 0.1 M sodium citrate buffer (pH 4.2). The amount of 4-methyl umbelliferone released by the enzyme was determined by fluorescence. Peptide extracts were used as inhibitors in the enzymatic assay but had to be diluted 1/20 or 1/50 because of the interference between the fluorescence and the buffer containing the peptides.

[4] = target: PLA2 (pancreatic phospholipase A2) (Homo sapiens, UniProt P04054); test: PLA2 inhibition assay by HPLC with DOPC as substrate; assay type: biochemical
PLA2 (pancreatic phospholipase A2), sequence (P04054 23-148, species assumed): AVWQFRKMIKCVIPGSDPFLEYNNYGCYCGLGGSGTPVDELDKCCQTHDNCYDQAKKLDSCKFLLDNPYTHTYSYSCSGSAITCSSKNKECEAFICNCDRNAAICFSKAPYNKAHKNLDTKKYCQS
Procedure: Inhibition of PLA2 enzyme was determined by High Performance Liquid Chromatography (HPLC) using 1,2-dioleoyl-sn-glycero-3-phosphocholine (DOPC) as substrate as described by Singh et al. (A rapid isocratic high-performance liquid chromatography method for determination of cholesterol and 1,2-dioleoyl-sn-glycero-3-phosphocholine. Journal of Chromatography (2005); 1073:347-353). Waters 2695 HPLC with Waters 2996 Photodiode detector Array and a C8 column Hypersil BDS (250×4.6 mm, […]) were used carrying out an eluent isocratic method formed by a mixture of ammonium phosphate buffer 50 mM pH 2.7:methanol (15:85, v/v).

[5] = test system: soy glycinin; test: Protease activity of LAB strains (supernatant and cells); assay type: biochemical; conditions: for Protease activity cell: cells; for Protease activity Supernatant: culture supernatant, proteases above 10 KDa concentrated
Source text: For the purpose of selecting the most efficient lactic acid bacteria having protease activity against glycinin, different strains of the genera Lactobacillus and Streptococcus were subject to the following hydrolysis assay.
The substrate selected to carry out the process of hydrolysis was soy glycinin. Glycinin is the soy major protein extracted from soy flour after treatment with mercaptoethanol followed by two centrifugation steps as described in Thanh V. H. et al. (Major proteins of soybean seeds: a straightforward fractionation and their characterization. 1976. J Agric Food Chem 24: 1117-1121). Among the enzymatic sources used to degrade glycinin, ten strains were tested: 6 strains from Streptococcus genera (strains 2, 3, 4, 5, 6, 7) and 4 strains from Lactobacillus genera (strains 8, 9, 10 and 11). All these strains were grown in optimal medium (MRS for Lactobacillus strains and BHI for Streptococcus strains) during 17 h at 37° C. and the proteases with a molecular weight above 10 KDa both in supernatant and cells were concentrated to be used as enzymatic sources in glycinin hydrolysis assays. On one hand, proteases from the supernatant were obtained after centrifugation for 15 min at 4000 rpm. Then the supernatant was ultrafiltrated by 10 KDa and the top was resuspended in 2 ml with 50 mM citrate phosphate buffer pH 7. On the other hand, cells obtained from the different cultures were washed with saline solution for 15 min at 4000 rpm and resuspended in 50 mM citrate phosphate buffer pH 7 to evaluate the protease activity in cells and supernatant (Table 1).

## CCCCCCCCCCC[C@@H](C[C@@H]1OC(=O)[C@H]1CCCCCC)OC(=O)[C@H](CC(C)C)NC=O [Orlistat, reference compound]
[1]
  % Fluorescence Reduction: 29.5 ± 0.1%

## DEDEDEDEDKPRPSRP (DEDEDEDEDKPRPSRP; listed as Glycine soja) [Peptide P16e]
[1]
  % Fluorescence Reduction C. elegans: 21.86 ± 4%

## DEDEDEDKPRPSRP (DEDEDEDKPRPSRP; listed as Glycine soja) [Peptide P14d]
[1]
  % Fluorescence Reduction C. elegans: 6.26 ± 7.6%

## EEDQPRPDHPPQRP [Peptide P14c, EEDQPRPDHPPQRP]
[1]
  % Fluorescence Reduction: 33.7 ± 5.5%
  % Fluorescence Reduction C. elegans: 39.37 ± 7.08%
[2]; Gastric phase 30 min., read-out: Degradation (%)
  metabolised at 0.5 h: 4.2%
[2]; Gastric phase 120 min., read-out: Degradation (%)
  metabolised at 2 h: 4.6%
[2]; HPLC, completely degraded = at the beginning of the intestinal phase, resistant ones finally degraded at the end
  degradation in the in vitro digestion model (in words): completely degraded
[2]; Intestinal phase 15 min., read-out: Degradation (%)
  metabolised at 0.25 h: 92.9%
[2]; Intestinal phase 30 min., read-out: Degradation (%)
  metabolised at 0.5 h: 93.2%
[2]; Intestinal phase 60 min., read-out: Degradation (%)
  metabolised at 1 h: 95%
[2]; Intestinal phase 120 min., read-out: Degradation (%)
  metabolised at 2 h: 95.5%
[2]; Oral phase 5 min., read-out: Degradation (%)
  metabolised at 5 min: 5.3%
[3]
  IC50: 28.9 µM
[4]; peptide 0.035 mg/ml
  Percentage of PLA2 inhibition: 20.4 ± 4.4%
[4]; peptide 0.35 mg/ml
  Percentage of PLA2 inhibition: 21.1 ± 4.3%
[4]; peptide 2 mg/ml
  Percentage of PLA2 inhibition: 25.2 ± 4.3%
[4]; peptide 3.5 mg/ml
  Percentage of PLA2 inhibition: 26.1 ± 4.1%

## EEEGGSVLSG [Peptide P10b, EEEGGSVLSG]
[1]
  % Fluorescence Reduction C. elegans: 33.48 ± 6.1%
[3]
  IC50: 36.3 µM
[4]; peptide 0.035 mg/ml
  Percentage of PLA2 inhibition: 7.8 ± 5.6%
[4]; peptide 0.35 mg/ml
  Percentage of PLA2 inhibition: 13.9 ± 3.3%
[4]; peptide 2 mg/ml
  Percentage of PLA2 inhibition: 26.1 ± 5.9%
[4]; peptide 3.5 mg/ml
  Percentage of PLA2 inhibition: 26.9 ± 2.5%

## GKREQDEDEDEDEDKPRPSRP (GKREQDEDEDEDEDKPRPSRP; listed as Glycine soja) [Peptide P21b]
[1]
  % Fluorescence Reduction C. elegans: 24.91 ± 7.1%

## HQQEEENEGGSILSG (HQQEEENEGGSILSG; listed as Glycine soja) [Peptide P15a]
[1]
  % Fluorescence Reduction C. elegans: 22.82 ± 6.1%

## Lactobacillus delbrueckii lactis CNCM I-4280 [Strain 8]
[5]
  Protease activity cell: 0.009 U.I./ml
  Protease activity Supernatant: 0.028 U.I./ml

## Lactobacillus helveticus CNCM I-4279 [Strain 9]
[5]
  Protease activity cell: 0.012 U.I./ml
  Protease activity Supernatant: 0.010 U.I./ml

## Lactobacillus paracasei paracasei CNCM I-1518 [Strain 11]
[5]
  Protease activity cell: 0.006 U.I./ml
  Protease activity Supernatant: 0.029 U.I./ml
